In US12043632B2, “6-heteroaryloxy benzimidazoles and azabenzimidazoles as JAK2 inhibitors” (Ajax Therapeutics, Inc., priority 2020, dated 2024) one finds Kd data, which are given here for 27 compounds.

For this assay, the target named is T1, JAK2 (JH1domain-catalytic, Y1007F,Y1008F) kinase (Homo sapiens, UniProt O60674, Y1007F/Y1008F).
T1 construct: JAK2 (JH1domain-catalytic, Y1007F,Y1008F) kinase was expressed as N-terminal fusion; made in house; host or cells: transiently transfected HEK293 cells
Kind of assay: JAK2 JH1 Domain Binding Assay. The note with it: qPCR readout.

Some results are limits rather than exact numbers.

T1 sequence (O60674 849-1124 Y1007F/Y1008F limits assumed): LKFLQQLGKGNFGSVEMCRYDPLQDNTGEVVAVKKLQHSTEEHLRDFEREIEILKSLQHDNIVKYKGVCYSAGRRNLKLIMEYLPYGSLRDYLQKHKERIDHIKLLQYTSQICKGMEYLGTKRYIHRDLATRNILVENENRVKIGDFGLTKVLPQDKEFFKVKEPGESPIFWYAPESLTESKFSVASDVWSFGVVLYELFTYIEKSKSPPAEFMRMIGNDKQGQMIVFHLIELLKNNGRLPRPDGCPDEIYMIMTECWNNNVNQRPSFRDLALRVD

`Cn1c(Nc2cc(CN3CCC3)cc(C(F)(F)F)c2)nc2ncc(Oc3cnn4ccncc34)c(Cl)c21` [Example I-256, N-(3-(azetidin-1-ylmethyl)-5-(trifluoromethyl)phenyl)-7-chloro-1-methyl-6-(pyrazolo[1,5-a]pyrazin-3-yloxy)-1H-imidazo[4,5-b]pyridin-2-amine] gave a Kd of under 10 nM.

`Cn1c(Nc2cc(C3CC3)cn(CCO)c2=O)nc2ncc(Oc3cnn4ccncc34)c(Cl)c21` [Example I-65, 3-((7-chloro-1-methyl-6-(pyrazolo[1,5-a]pyrazin-3-yloxy)-1H-imidazo[4,5-b]pyridin-2-yl)amino)-5-cyclopropyl-1-(2-hydroxyethyl)pyridin-2(1H)-one]: the Kd is under 10 nM.

The compound `CNc1nccn2ncc(Oc3cnc4nc(Nc5cc([C@H]6CCOC6)nc(C(F)(F)F)c5)n(C)c4c3Cl)c12` (single isomer, unassigned) [Example I-280-b] yielded a Kd of 10 to 50 nM.

`CNc1cn2ncc(Oc3cnc4nc(Nc5cc(C6CC6)nn(C)c5=O)n(C)c4c3Cl)c2cn1` [Example I-317, 4-((7-chloro-1-methyl-6-((6-(methylamino)pyrazolo[1,5-a]pyrazin-3-yl)oxy)-1H-imidazo[4,5-b]pyridin-2-yl)amino)-6-cyclopropyl-2-methylpyridazin-3(2H)-one] had a Kd of 10 to 50 nM.

`Cn1cc(C(F)(F)F)cc(Nc2nc3ncc(Oc4cnc5[nH]cc(C#N)c5c4)c(C#N)c3n2C)c1=O` [Example I-300, 6-((3-cyano-1H-pyrrolo[2,3-b]pyridin-5-yl)oxy)-1-methyl-2-((1-methyl-2-oxo-5-(trifluoromethyl)-1,2-dihydropyridin-3-yl)amino)-1H-imidazo[4,5-b]pyridine-7-carbonitrile] yielded a Kd of 50 to 1000 nM.

In turn, `Cn1c(Nc2cc(C3CC3)cn(CCO)c2=O)nc2ncc(Oc3cnn4ccccc34)c(Cl)c21` [Example I-78, 3-((7-chloro-1-methyl-6-(pyrazolo[1,5-a]pyridin-3-yloxy)-1H-imidazo[4,5-b]pyridin-2-yl)amino)-5-cyclopropyl-1-(2-hydroxyethyl)pyridin-2(1H)-one] registered a Kd of under 10 nM.

Compound `Cn1c(Nc2cc(C(F)(F)F)cn([C@H]3C[C@@H](O)C3)c2=O)nc2ncc(Oc3cnn4cc(F)ccc34)c(Cl)c21` [Example I-162, cis-3-((7-chloro-6-((6-fluoropyrazolo[1,5-a]pyridin-3-yl)oxy)-1-methyl-1H-imidazo[4,5-b]pyridin-2-yl)amino)-1-(3-hydroxycyclobutyl)-5-(trifluoromethyl)pyridin-2(1H)-one] came in with a dissociation constant (Kd) of under 10 nM.

`Cn1cc(C2CC2)cc(Nc2nc3ncc(Oc4cnn5ccnc(O[C@@H]6CC[C@H]6O)c45)c(Cl)c3n2C)c1=O` (single isomer, unassigned) [Example I-133-a] returned an equilibrium dissociation constant (Kd) of under 10 nM.

For `CNc1cn2ncc(Oc3cnc4nc(Nc5cc(CN6CC(F)C6)cc(C(F)(F)F)c5)n(C)c4c3Cl)c2cn1` [Example I-358, 7-chloro-N-(3-((3-fluoroazetidin-1-yl)methyl)-5-(trifluoromethyl)phenyl)-1-methyl-6-((6-(methylamino)pyrazolo[1,5-a]pyrazin-3-yl)oxy)-1H-imidazo[4,5-b]pyridin-2-amine], the equilibrium dissociation constant (Kd) was 50 to 1000 nM.

As for `CNc1cn2ncc(Oc3cnc4nc(Nc5cc(CN6CCCC6)cc(C(F)(F)F)c5)n(C)c4c3Cl)c2cn1` [Example I-316, 7-chloro-1-methyl-6-((6-(methylamino)pyrazolo[1,5-a]pyrazin-3-yl)oxy)-N-(3-(pyrrolidin-1-ylmethyl)-5-(trifluoromethyl)phenyl)-1H-imidazo[4,5-b]pyridin-2-amine], the dissociation constant Kd was in the range of 10 to 50 nM.

With `COc1c(Oc2cnn3ccccc23)cnc2nc(Nc3cc(C4CC4)cn([C@H]4CC[C@H]4O)c3=O)n(C)c12` (single isomer, unassigned) [Example I-131-b], the dissociation constant (Kd) lay within 10 to 50 nM.

Regarding `Cn1c(Nc2cc(C(F)(F)F)cn(CCO)c2=O)nc2ncc(Oc3cnn4ccccc34)c(Cl)c21` [Example I-103, 3-((7-chloro-1-methyl-6-(pyrazolo[1,5-a]pyridin-3-yloxy)-1H-imidazo[4,5-b]pyridin-2-yl)amino)-1-(2-hydroxyethyl)-5-(trifluoromethyl)pyridin-2(1H)-one], the Kd is under 10 nM.

The compound `Cn1cc(C(F)(F)C(F)(F)F)cc(Nc2nc3ncc(Oc4cnn5ccncc45)c(Cl)c3n2C)c1=O` [Example I-144, 3-((7-chloro-1-methyl-6-(pyrazolo[1,5-a]pyrazin-3-yloxy)-1H-imidazo[4,5-b]pyridin-2-yl)amino)-1-methyl-5-(perfluoroethyl)pyridin-2(1H)-one] gave a Kd of under 10 nM.

In turn, `CNc1cc(F)c2c(Oc3cnc4nc(Nc5cc(C(F)(F)F)cn(C)c5=O)n(C)c4c3C#N)cnn2c1` [Example I-395, 6-((4-fluoro-6-(methylamino)pyrazolo[1,5-a]pyridin-3-yl)oxy)-1-methyl-2-((1-methyl-2-oxo-5-(trifluoromethyl)-1,2-dihydropyridin-3-yl)amino)-1H-imidazo[4,5-b]pyridine-7-carbonitrile] gave a Kd of under 10 nM.

For the compound `CNc1cn2ncc(Oc3cnc4nc(Nc5cc(CN6CC7(COC7)C6)cc(C(F)(F)F)c5)n(C)c4c3Cl)c2cn1` [Example I-356, N-(3-((2-oxa-6-azaspiro[3.3]heptan-6-yl)methyl)-5-(trifluoromethyl)phenyl)-7-chloro-1-methyl-6-((6-(methylamino)pyrazolo[1,5-a]pyrazin-3-yl)oxy)-1H-imidazo[4,5-b]pyridin-2-amine], the dissociation constant (Kd) lay within 10 to 50 nM.

As to `Cn1c(Nc2cc(CN3CC(F)C3)cc(C(F)(F)F)c2)nc2ncc(Oc3cnn4ccncc34)c(Cl)c21` [Example I-195, 7-chloro-N-(3-((3-fluoroazetidin-1-yl)methyl)-5-(trifluoromethyl)phenyl)-1-methyl-6-(pyrazolo[1,5-a]pyrazin-3-yloxy)-1H-imidazo[4,5-b]pyridin-2-amine], the equilibrium dissociation constant (Kd) was under 10 nM.

In turn, `Cn1c(Nc2cc(C(C)(C)C)n(CC(F)F)n2)nc2ncc(Oc3cnn4ccncc34)c(Cl)c21` [Example I-34, N-(5-(tert-butyl)-1-(2,2-difluoroethyl)-1H-pyrazol-3-yl)-7-chloro-1-methyl-6-(pyrazolo[1,5-a]pyrazin-3-yloxy)-1H-imidazo[4,5-b]pyridin-2-amine] yielded a Kd of under 10 nM.

Regarding `Cn1c(Nc2cc(CN3CCCC3)cc(C(F)(F)F)c2)nc2ncc(Oc3cnn4ccncc34)c(Cl)c21` [Example I-277, 7-chloro-1-methyl-6-(pyrazolo[1,5-a]pyrazin-3-yloxy)-N-(3-(pyrrolidin-1-ylmethyl)-5-(trifluoromethyl)phenyl)-1H-imidazo[4,5-b]pyridin-2-amine], the Kd is under 10 nM.

Turning to `Cn1c(Nc2cc3n(n2)CCCC3(C)C)nc2ncc(Oc3cnn4cc(OCCO)ncc34)c(Cl)c21` [Example I-398, 2-((3-((7-chloro-2-((4,4-dimethyl-4,5,6,7-tetrahydropyrazolo[1,5-a]pyridin-2-yl)amino)-1-methyl-1H-imidazo[4,5-b]pyridin-6-yl)oxy)pyrazolo[1,5-a]pyrazin-6-yl)oxy)ethan-1-ol], the dissociation constant Kd is under 10 nM.

`CNc1nccn2ncc(Oc3cnc4nc(Nc5cc(C6CCCN6C)cc(C(F)(F)F)c5)n(C)c4c3Cl)c12` (single isomer, unassigned) [Example I-269-a] gave a Kd of 10 to 50 nM.

`CNc1nccn2ncc(Oc3cnc4nc(Nc5cc([C@@H]6CCOC6)nc(C(F)(F)F)c5)n(C)c4c3Cl)c12` (single isomer, unassigned) [Example I-280-a]: the Kd was 10 to 50 nM.

`Cn1cc(C(F)(F)F)cc(Nc2nc3ncc(Oc4cnn5cc(OCCN6CCOCC6)ccc45)c(C#N)c3n2C)c1=O` [Example I-336, 1 1-methyl-2-((1-methyl-2-oxo-5-(trifluoromethyl)-1,2-dihydropyridin-3-yl)amino)-6-((6-(2-morpholinoethoxy)pyrazolo[1,5-a]pyridin-3-yl)oxy)-1H-imidazo[4,5-b]pyridine-7-carbonitrile]: the dissociation constant (Kd) was under 10 nM.

Regarding `CNc1nccn2ncc(Oc3cnc4nc(Nc5cc(-n6cnc(C)c6)cc(C(F)(F)F)c5)n(C)c4c3Cl)c12` [Example I-219, 7-chloro-1-methyl-N-(3-(4-methyl-1H-imidazol-1-yl)-5-(trifluoromethyl)phenyl)-6-((4-(methylamino)pyrazolo[1,5-a]pyrazin-3-yl)oxy)-1H-imidazo[4,5-b]pyridin-2-amine], the equilibrium dissociation constant (Kd) fell in the range of 10 to 50 nM.

As to `CNc1cn2ncc(Oc3cnc4nc(Nc5cc(OC[C@H]6CCCN6C)cc(C(F)(F)F)c5)n(C)c4c3Cl)c2cn1` [Example I-332, (R)-7-chloro-1-methyl-6-((6-(methylamino)pyrazolo[1,5-a]pyrazin-3-yl)oxy)-N-(3-((1-methylpyrrolidin-2-yl)methoxy)-5-(trifluoromethyl)phenyl)-1H-imidazo[4,5-b]pyridin-2-amine], the equilibrium dissociation constant (Kd) was under 10 nM.

For `CC(=O)N1CC2(CC(n3nc(Nc4nc5ncc(Oc6cnn7ccncc67)c(Cl)c5n4C)cc3C(F)(F)F)C2)C1` [Example I-156, 1-(6-(3-((7-chloro-1-methyl-6-(pyrazolo[1,5-a]pyrazin-3-yloxy)-1H-imidazo[4,5-b]pyridin-2-yl)amino)-5-(trifluoromethyl)-1H-pyrazol-1-yl)-2-azaspiro[3.3]heptan-2-yl)ethan-1-one], the Kd is under 10 nM.

The compound `Cn1c(Nc2ccc(CN3CCCC3)c(C(F)(F)F)c2)nc2ncc(Oc3cnn4ccncc34)c(C#N)c21` [Example I-342, 1-methyl-6-(pyrazolo[1,5-a]pyrazin-3-yloxy)-2-((4-(pyrrolidin-1-ylmethyl)-3-(trifluoromethyl)phenyl)amino)-1H-imidazo[4,5-b]pyridine-7-carbonitrile] displayed a Kd of 10 to 50 nM.

With `CN(C)[C@@H]1CCN(Cc2cc(C(F)(F)F)cc(Nc3nc4ncc(Oc5cnn6ccncc56)c(Cl)c4n3C)c2F)C1` [Example I-283, (R)-7-chloro-N-(3-((3-(dimethylamino)pyrrolidin-1-yl)methyl)-2-fluoro-5-(trifluoromethyl)phenyl)-1-methyl-6-(pyrazolo[1,5-a]pyrazin-3-yloxy)-1H-imidazo[4,5-b]pyridin-2-amine], the Kd was 10 to 50 nM.
